Data as given in patent US20120107246A1, “METHOTREXATE-MODIFIED NANOPARTICLES AND RELATED METHODS” (WASHINGTON, UNIVERSITY OF, priority 2005, published 2012).

How the values were obtained:
9L cells = assay: leucovorin rescue of 9L cells exposed to free methotrexate; format: cell-based, rat
Text: Methotrexate induces apoptosis in cells through inhibition of the folic acid cycle by acting on the enzyme, dihydrofolate reductase (DHFR). The substitution of a […] at position four of the pteridine ring transforms the molecule from a substrate of DHFR to a tight binder. […] Leucovorin (folinic acid) is commonly used in high dose chemotherapy to rescue the folic acid cycle in healthy cells and reduce the deleterious side effect of the therapy. Leucovorin rescues the cell cycle by being actively metabolized into reduced folates, increasing the intracellular concentration of the reduced folates within the cytoplasm. […] Previous studies used leucovorin to rescue MCF-7 and HeLa cells following exposure to free methotrexate, but no studies have been reported in using leucovorin for the 9L cell line. Thus, the first step in this study was to determine whether the 9L cells would respond to leucovorin induced rescue following the cellular exposure to free methotrexate.

[1] = in humans; cited from earlier work
HeLa cells = assay: cell viability (surviving fraction) by cell count; conditions: up to 120 hours in culture, nanoparticles 0.01-0.1 mg/mL iron, soluble methotrexate 2 μg/mL
Procedure: Human breast cancer cells (MCF-7), and human cervical cancer cells (HeLa) were obtained from the Fred Hutchinson Cancer Research Center, Seattle, Wash. Cells were grown in T-75 flasks with RPMI Media (Invitrogen) supplemented with 10% fetal calf serum, 5958 mg/mL HEPES, 300 mg/mL L-Glutamine, 50 ug/mL streptomycin and 50 IU/mL penicillin. Cells were cultured at 37° C. in a humidified atmosphere with 5% CO2 with the medium being changed every third day. The cells were transferred to RPMI-1640 folate free medium (Invitrogen) 24 hours prior to plating. The cells were then subcultured in 24-well plates at a concentration of 25,000 cells/mL in RPMI-1640 folate-free medium. […] In addition, a control media containing soluble methotrexate was prepared at a concentration of 2 μg/mL. Cells were also cultured in 1 mL medium without nanoparticles as the control. The cell culture proceeded for 24, 48, 72, 96, and 120 hours respectively at which time, the cells were washed three times with 1 mL of Hank's Balanced Salt Solution (HBSS, Invitrogen), detached with 500 μL of 0.25% trypsin-EDTA (Sigma), and resuspended in 1 mL of Phosphate Buffered Saline (PBS) supplemented with 10% FBS. Cell viability was determined by cell count via a model Z1 Beckman particle counter.

Row | Compound | leucovorin concentration at which cells showed continued proliferation (9L cells; 9L cells after 2 hours exposure to methotrexate, 48 hours incubation with LV) | sufficient concentration of LV to ensure cell rescue (9L cells; 9L cells after methotrexate exposure) | half-life [1] | reduction in cell viability / cytotoxicity (HeLa cells)
1 | Nc1nc2c(c(=O)[nH]1)N(C=O)C(CNc1ccc(C(=O)N[C@@H](CCC(=O)O)C(=O)O)cc1)CN2 (stereo partly shown) [leucovorin, Leucovorin (folinic acid)] | ≥ 1 µg/mL | ~10 µg/mL |  | 
2 | CN(Cc1cnc2nc(N)nc(N)c2n1)c1ccc(C(=O)N[C@@H](CCC(=O)O)C(=O)O)cc1 [methotrexate, Methotrexate] |  |  | 2 to 3 h | slightly higher cytotoxicity
